Legend:
human lymphoblast cells [1] = system: human lymphoblast cells
human lymphoblast cells [2] = assay type: cell-based

| SMILES | effect on cytotoxicity of PbTx-2 (LDH activity) (human lymphoblast cells [1]) | reduction of PbTx-2 cytotoxicity (human lymphoblast cells [1]) | effect on redox state of the proteome (human lymphoblast cells [2]) |
| --- | --- | --- | --- |
| O=S(=O)(O)CCS [MESNA, sodium mercaptoethyl sulfonate] | significantly reduced cytotoxicity | approximately 50% | restored to control levels |
| NCCS [cysteamine] | significantly reduced cytotoxicity | – | – |

Source: patent publication US11779551B1 (priority 2022, dated 2023)
